How the values were obtained:
[1] = test system: patients with cluster headache; test: Cluster headache study: tolerability and adverse events; type: in vivo, human
Protocol: Sessions were conducted in the Neurobiological Studies Unit (NSU) at VACHS. Subjects reported to the NSU at 08:00; urine drug, urine pregnancy (when applicable), and alcohol breathalyzer tests were required to be negative in order to proceed. After a standard light breakfast, an intravenous line was placed and baseline measures were collected. Subjects typically received the drug capsule between 08:30 and 09:30. Blood pressure, heart rate, and peripheral oxygenation were measured at baseline and throughout experimental sessions. Drug effects (overall, anxiety/fear, sleepiness/sedation, nausea, joy/intense happiness, peace/harmony) were self-reported on a 0-3 scale (0=none, 1=minimal, 2=moderate, 3=definite) at baseline and throughout experimental sessions. Psychedelic effects were self-reported at the end of experimental sessions using the validated 5-Dimensional Altered States of Consciousness (5D-ASC) scale. Subjects were discharged from the NSU at 6 hours after capsule ingestion or once physiological and psychological drug effects had resolved. Subjects were not allowed to drive themselves after experimental sessions. Emergency contacts, including 24-hour/7-day psychiatry services, were provided to all subjects.
Telephone follow-up was performed the day after each experimental session and weekly for two weeks and at 2, 3, and 6 months after the last experimental session.

[2] = test system: patients with migraine headache; test: Migraine study: acute physiologic and psychotropic effects and adverse events of drug administration; type: in vivo, human
Protocol: Blood pressure, heart rate, and peripheral oxygenation were measured at baseline and throughout experimental sessions. Acute headache pain and associated symptoms (if present) and drug effects (overall, anxiety/fear, sleepiness/sedation, nausea, joy/intense happiness, peace/harmony) were self-reported on a 0-3 scale (0=none, 1=minimal, 2=moderate, 3=definite) at baseline and throughout experimental sessions. Psychedelic effects were self-reported at the end of experimental sessions using the validated 5-Dimensional Altered States of Consciousness (5D-ASC) scale. Subjects were discharged from the NSU at 6 hours after capsule ingestion or once physiological and psychological drug effects had resolved. Only one subject remained in the NSU for an additional 60 minutes until drug effects resolved. Subjects were not allowed to drive themselves after experimental sessions. Emergency contacts, including 24-hour/7-day psychiatry services, were provided to all subjects.
Telephone follow-up was performed the day after and weekly for two weeks after each experimental session, and at 2 and 3 months after the second experimental session.
Statistical analyses were performed using SAS, version 9.4 (SAS Institute Inc., Cary, N.C.) and figures were produced with GraphPad Prism (GraphPad Software Inc., La Jolla, Calif.). All statistical tests were two-sided with an overall pre-hypothesis alpha threshold of 0.05. Measures of error are shown as standard error about the mean (SEM). The primary clinical outcome measure was change in weekly migraine days (WMD) from baseline. This and the secondary measures of migraine burden—changes from baseline in weekly migraine attacks (WMA), pain severity, light sensitivity severity, sound sensitivity severity, nausea/vomiting severity, attack-related functional impairment, and weekly migraine abortive use—were calculated and compared via paired t-test. The time to the next two migraine attacks were also compared between placebo and psilocybin via paired t test. Acute effects of drug administration on mean arterial pressure (MAP), heart rate, peripheral oxygenation, and general drug effects were analyzed via 2-way repeated measures ANOVA with post-hoc Fisher least significant difference (LSD) test (when the interaction existed). Psychotropic effects as measured by the 5D-ASC scale were calculated as a percent of the total possible score 21, 22, as well as the percent possible score of each of the scale's five dimensions—oceanic boundlessness (OBN), dread of ego dissolution (DED), visionary restructuralization (VRS), acoustic alterations (AUA), and vigilance reduction (VIR). Percent possible scores were then compared between placebo and psilocybin via paired t-test. In order to test the assumption that psychotropic effects are unrelated to effects on migraine activity, the maximum rating of general drug effects and the percent total possible 5D-ASC scale score were correlated to the percent change in WMD after psilocybin administration. The number of adverse events (AEs) were compared between placebo and psilocybin using inference on proportions.

## CN(C)CCc1c[nH]c2cccc(OP(=O)(O)O)c12 [psilocybin, 3-(2-dimethylaminoethyl)-1H-indol-4-yl] dihydrogen phosphate]
[1]; cluster headache study, 3-dose pulse 0.143 mg/kg
  serious or unexpected adverse events: no serious or unexpected adverse events
[1]; follow-up in the 6 months after study participation
  lasting physical or psychological changes: no lasting physical or psychological changes
[1]; self-limiting
  most commonly reported adverse events during acute exposure: nausea and anxiety
[2]; at 1.5 hours after capsule ingestion, 0.143 mg/kg oral, mean (SEM)
  maximum increase in mean arterial pressure (MAP) over placebo: 12.2 (4.7) mmHg
[2]; during experimental session, 0.143 mg/kg oral
  tingling/paresthesia, cold/shivering, dry mouth, and acute migraine reported: one subject each
[2]; during experimental sessions
  lightheadedness and generalized tension/sore muscles, numbers vs placebo: not significant
[2]; during experimental sessions, 0.143 mg/kg oral
  drug x time interaction on heart rate or peripheral oxygenation: no significant interactions
[2]; end of experimental test day, 0.143 mg/kg oral, mean (SEM), P=0.0263 vs placebo
  5D-ASC scale, percent possible score for the total scale score: 19.35%
[2]; in the 24 hours following the start of experimental sessions
  tension/sore muscles, general headache attack, and migraine attack vs placebo: no significant differences
[2]; migraine study, single oral dose 0.143 mg/kg
  serious or unexpected adverse events: no serious or unexpected AEs
[2]; starting at 45 minutes until 4 hours after capsule ingestion, 0.143 mg/kg oral
  MAP vs placebo (post-hoc Fisher LSD): significant increase

From patent publication US20210236523A1, “P[…] FOR HEADACHE DISORDERS” (priority 2020, published 2021)
